The subject of experiment [1] is Green Peach Aphid (GPA) (Myzus persicae) (MYZUPE). Nature of the experiment: Bioassay for Green Peach Aphid (GPA), foliar spray on cabbage seedlings. It counts as in vivo. Conditions: 72 h, read-out: GPA 200 ppm, % Control (or Mortality) rating. From the text:
Bioassay for Green Peach Aphid (GPA) (Myzus persicae) (MYZUPE)
The green peach aphid (Myzus persicae) is the most significant aphid pest of peach trees, causing decreased growth, shriveling of the leaves, and the death of various tissues. It is also hazardous because it acts as a vector for the transport of plant viruses, such as potato virus Y and potato leafroll virus to members of the nightshade/potato family Solanaceae, and various mosaic viruses to many other food crops. GPA attacks such plants as broccoli, burdock, cabbage, carrot, cauliflower, daikon, eggplant, green beans, lettuce, macadamia, papaya, peppers, sweet potatoes, tomatoes, watercress, and zucchini, among other plants GPA also attacks many ornamental crops such as carnation, chrysanthemum, flowering white cabbage, poinsettia, and roses. GPA has developed resistance to many pesticides.
Cabbage seedlings grown in 3-inch pots, with 2-3 small (3-5 cm) true leaves, were used as test substrate. The seedlings were infested with 20-50 GPA (wingless adult and nymph stages) one day prior to chemical application. Four pots with individual seedlings were used for each treatment. Test compounds (2 mg) were dissolved in 2 mL of acetone/methanol (1:1) solvent, forming stock solutions of 1000 ppm test compound. The stock solutions were diluted 5× with 0.025% Tween 20 in water to obtain the solution at 200 ppm test compound. A hand-held aspirator-type sprayer was used for spraying a solution to both sides of […] leaves until runoff. Reference plants (solvent check) were sprayed with the diluent only containing 20% by volume of acetone/methanol (1:1) solvent. Treated plants were held in a holding room for three days at approximately 25° C. and ambient relative humidity (RH) prior to grading. Evaluation was conducted by counting the number of live aphids per plant under a microscope. Percent control was measured by using Abbott's correction formula (W. S. Abbott, “A Method of Computing the Effectiveness of an Insecticide” J. Econ. Entomol. 18 (1925), pp. 265-267) as follows. Corrected % Control=100*(X−Y)/X
X=No. of live aphids on solvent check plants and
Y=No. of live aphids on treated plants
Biological Data for Green Peach Aphid (GPA) (MYZUPE) and Sweetpotato Whitefly-Crawler (WF) (BEMITA)” (see table section).
(§1) The mortality efficiency of the pesticidal compounds against GPA and WF insects was determined after treatment.

Experiment [2] concerns Sweetpotato Whitefly-Crawler (WF) (Bemisia tabaci) (BEMITA). Nature of the experiment: Insecticidal test for Sweetpotato Whitefly-Crawler (WF) in foliar spray assay on cotton plants. Format: in vivo. As to conditions: 216 h, read-out: WF 200 ppm, % Control (or Mortality) rating.
Text: Insecticidal Test for Sweetpotato Whitefly-Crawler (WF) (Bemisia tabaci) (BEMITA) in Foliar Spray Assay
The sweetpotato whitefly (Bemisia tabaci) has been reported as a serious pest of cultivated crops world-wide. It has an extremely wide host range attacking more than 500 species of plants from 63 plant families. Weeds often serve as alternate hosts of crop pests. Direct feeding damage is caused by the piercing and sucking sap from the foliage of plants. This feeding causes weakening and early wilting of the plant and reduces the plant growth rate and yield Indirect damage results by the accumulation of honeydew produced by the whiteflies. Honeydew serves as a substrate for the growth of black sooty mold on leaves and fruit reducing photosynthesis and lessens the market value of the plant or yield. […] The sweetpotato whitefly is considered the most common and important whitefly vector of plant viruses worldwide.
Cotton plants (Gossypium hirsutum) grown in 3-inch pots, with 1 small (4-5 cm) true leaves, were used as test substrate. The plants were infested with 200-400 whitefly eggs 4-5 days prior to chemical application. Four pots with individual plants were used for each treatment. Test compounds (2 mg) were dissolved in 1 mL of acetone solvent, forming stock solutions of 2000 ppm test compound. The stock solutions were diluted 10× with 0.025% Tween 20 in water (diluents) to obtain the solution at 200 ppm test compound. A hand-held aspirator-type sprayer was used for spraying a solution to both sides of cotton leaves until runoff. Reference plants (solvent check) were sprayed with the diluent only containing 10% by volume of acetone solvent. Treated plants were held in a holding room for 9 days at approximately 25° C. and ambient relative humidity (RH) prior to grading. Evaluation was conducted by counting the number of live 3-4 nymph stage per plant under a microscope. Percent control was measured by using Abbott's correction formula (W. S. Abbott, “A Method of Computing the Effectiveness of an Insecticide” J. Econ. Entomol. 18 (1925), pp. 265-267) as follows.
Biological Data for Green Peach Aphid (GPA) (MYZUPE) and Sweetpotato Whitefly-Crawler (WF) (BEMITA)” (see table section). Corrected % Control=100*(X−Y)/X
X=No. of live nymphs on solvent check plants and
Y=No. of live nymphs on treated plants
as §1

The mark [3] stands for this setting: 200 ppm foliar spray on cabbage seedlings, graded after three days, Abbott corrected % control.
The mark [4] stands for this setting: 200 ppm foliar spray on cotton plants, graded after 9 days, Abbott corrected % control.

Like-named read-outs stand apart in the source and are kept apart here.

Results on 22 compounds are retold here after patent US9523100B2, “Pesticidal compositions and related methods” (DOW AGROSCIENCES LLC, priority 2013, dated 2016).

The mortality is the percentage killed.

Turning to `CCN(C(=O)CNC(=O)OC(C)(C)C)c1cn(-c2cccnc2)nc1Cl` [Compound F2, tert-Butyl (2-((3-chloro-1-(pyridin-3-yl)-1H-pyrazol-4-yl)(ethyl)amino)-2-oxoethyl)carbamate], the mortality at 200 ppm in experiment [1] (setting [3]) and in experiment [2] (setting [4]) was 80 to 100% each time.

As to `CN(C(=O)Cn1ccccc1=O)c1cn(-c2cccnc2)nc1Cl` [Compound F3, N-(3-Chloro-1-(pyridin-3-yl)-1H-pyrazol-4-yl)-N-methyl-2-(2-oxopyridin-1(2H)-yl)acetamide], the mortality at 200 ppm in experiment [1] (setting [3]) and in experiment [2] (setting [4]) was 80 to 100% throughout.

`CCN(C(=O)CN(C)C(=O)OC(C)(C)C)c1cn(-c2cccnc2)nc1Cl` [Compound F4, tert-Butyl (2-((3-chloro-1-(pyridin-3-yl)-1H-pyrazol-4-yl)(ethyl)amino)-2-oxoethyl)(methyl)carbamate]: the mortality at 200 ppm in experiment [1] (foliar) and in experiment [2] (foliar) was 80 to 100% each time.

For `CCN(C(=O)CN(C)C(=O)CCC(F)(F)F)c1cn(-c2cccnc2)nc1Cl` [Compound F5, N-(2-((3-Chloro-1-(pyridin-3-yl)-1H-pyrazol-4-yl)(ethyl)amino)-2-oxoethyl)-4,4,4-trifluoro-N-methylbutanamide], the mortality at 200 ppm in experiment [1] (setting [3]) and in experiment [2] (setting [4]) was 80 to 100% throughout.

On to `CN(C(=O)CN1CCCC1=O)c1cn(-c2cccnc2)nc1Cl` [Compound F6, N-(3-Chloro-1-(pyridin-3-yl)-1H-pyrazol-4-yl)-N-methyl-2-(2-oxopyrrolidin-1-yl)acetamide], for which the mortality at 200 ppm in experiment [1] (setting [3]) and in experiment [2] (setting [4]) was 80 to 100% throughout.

For `CN(C(=O)CN1CCSC1=O)c1cn(-c2cccnc2)nc1Cl` [Compound F7, N-(3-Chloro-1-(pyridin-3-yl)-1H-pyrazol-4-yl)-N-methyl-2-(2-oxothiazolidin-3-yl)acetamide], the mortality at 200 ppm lay in the range of 0 to 80% in experiment [1] (setting [3]) and 80 to 100% in experiment [2] (setting [4]).

For the compound `CCN(C(=O)CCN1CCCCC1=O)c1cn(-c2cccnc2)nc1Cl` [Compound F8, N-(3-Chloro-1-(pyridin-3-yl)-1H-pyrazol-4-yl)-N-ethyl-3-(2-oxopiperidin-1-yl)propanamide], the mortality at 200 ppm in experiment [1] (setting [3]) and in experiment [2] (setting [4]) was 80 to 100% throughout.

Turning to `CCN(C(=O)CCN(C(C)=O)C1CC1)c1cn(-c2cccnc2)nc1Cl` [Compound F9, N-(3-Chloro-1-(pyridin-3-yl)-1H-pyrazol-4-yl)-3-(N-cyclopropylacetamido)-N-ethylpropanamide], the mortality at 200 ppm lay in the range of 80 to 100% in experiment [1] (setting [3]) and 0 to 80% in experiment [2] (setting [4]).

For `CCN(C(=O)CN1CCSC1=O)c1cn(-c2cccnc2)nc1Cl` [Compound F10, N-(3-Chloro-1-(pyridin-3-yl)-1H-pyrazol-4-yl)-N-ethyl-2-(2-oxothiazolidin-3-yl)acetamide], the mortality at 200 ppm fell in the range of 0 to 80% in experiment [1] (setting [3]) and 80 to 100% in experiment [2] (setting [4]).

As to `CCN(C(=O)C1CCN(C(=O)OC(C)(C)C)C1)c1cn(-c2cccnc2)nc1Cl` (centres unmarked) [Compound F11], the mortality at 200 ppm in experiment [1] (setting [3]) was in the range of 0 to 80%; in experiment [2] (setting [4]) it was 80 to 100%.

In the case of `CCN(C(=O)CCNC(=O)CCC(F)(F)F)c1cn(-c2cccnc2)nc1Cl` [Compound F12, N-(3-((3-Chloro-1-(pyridin-3-yl)-1H-pyrazol-4-yl)(ethyl)amino)-3-oxopropyl)-4,4,4-trifluorobutanamide], the mortality at 200 ppm in experiment [1] (setting [3]) and in experiment [2] (setting [4]) was 80 to 100% throughout.

As to `CCN(C(=O)CCC(=O)NCc1ccc(C)o1)c1cn(-c2cccnc2)nc1Cl` [Compound F13, N1-(3-Chloro-1-(pyridin-3-yl)-1H-pyrazol-4-yl)-N1-ethyl-N4-((5-methylfuran-2-yl)methyl)succinamide], the mortality at 200 ppm in experiment [1] (setting [3]) lay in the range of 0 to 80%; in experiment [2] (setting [4]) it was 80 to 100%.

For `CCN(C(=O)CC1CN(Cc2ccc(C(F)(F)F)cc2)C1=O)c1cn(-c2cccnc2)nc1Cl` (centres unmarked) [Compound F14], the mortality at 200 ppm fell in the range of 0 to 80% in experiment [1] (setting [3]) and 80 to 100% in experiment [2] (setting [4]).

Consider `CCN(C(=O)CCC(=O)NCC1CCCCC1)c1cn(-c2cccnc2)nc1Cl` [Compound F15, N1-(3-Chloro-1-(pyridin-3-yl)-1H-pyrazol-4-yl)-N4-(cyclohexylmethyl)-N1-ethylsuccinamide], for which the mortality at 200 ppm in experiment [1] (setting [3]) was in the range of 0 to 80%; in experiment [2] (setting [4]) it was 80 to 100%.

Turning to `CCN(C(=O)C(C)OC(=O)N(C)OC)c1cn(-c2cccnc2)nc1Cl` (centres unmarked) [Compound F16, 1-((3-Chloro-1-(pyridin-3-yl)-1H-pyrazol-4-yl)(ethyl)amino)-1-oxopropan-2-yl methoxy(methyl) carbamate], the mortality at 200 ppm in experiment [1] (setting [3]) and in experiment [2] (setting [4]) was 80 to 100% each time.

For the compound `CCN(C(=O)CCN(CC(F)F)C(=O)n1ccnc1)c1cn(-c2cccnc2)nc1Cl` [Compound F17, N-(3-((3-chloro-1-(pyridin-3-yl)-1H-pyrazol-4-yl)(ethyl)amino)-3-oxopropyl)-N-(2,2-difluoroethyl)-1H-imidazole-1-carboxamide], the mortality at 200 ppm lay in the range of 0 to 80% in experiment [1] (foliar) and 80 to 100% in experiment [2] (foliar).

For `O=C(CCC(=O)N(CC1CC1)c1cn(-c2cccnc2)nc1Cl)N1CCCCCC1` [Compound F18, 4-(Azepan-1-yl)-N-(3-chloro-1-(pyridin-3-yl)-1H-pyrazol-4-yl)-N-(cyclopropylmethyl)-4-oxobutanamide], the mortality at 200 ppm is 0 to 80% in experiment [1] (setting [3]) and 80 to 100% in experiment [2] (setting [4]).

Regarding `CCN(C(=O)CCNC(=O)OC(C)(C)C)c1cn(-c2cccnc2)nc1Cl` [Compound F19, tert-Butyl (3-((3-chloro-1-(pyridin-3-yl)-1H-pyrazol-4-yl)(ethyl)amino)-3-oxopropyl)carbamate], the mortality at 200 ppm in experiment [1] (setting [3]) and in experiment [2] (setting [4]) was 80 to 100% in each case.

Take `CCN(C(=O)CCC(=O)N1CCCCC1)c1cn(-c2cccnc2)nc1Cl` [Compound F21, N-(3-Chloro-1-(pyridin-3-yl)-1H-pyrazol-4-yl)-N-ethyl-4-oxo-4-(piperidin-1-yl)butanamide]: the mortality at 200 ppm in experiment [1] (setting [3]) was 0 to 80%; in experiment [2] (setting [4]), 80 to 100%.

Take `CN(C(=O)CN1CCCCCC1=O)c1cn(-c2cccnc2)nc1Cl` [Compound F22, N-(3-Chloro-1-(pyridin-3-yl)-1H-pyrazol-4-yl)-N-methyl-2-(2-oxoazepan-1-yl)acetamide]: the mortality at 200 ppm was 0 to 80% in experiment [1] (setting [3]) and 80 to 100% in experiment [2] (setting [4]).

Regarding `C#CCN(C(=O)CN(C)C(=O)OC(C)(C)C)c1cn(-c2cccnc2)nc1Cl` [Compound F23, tert-Butyl (2-((3-chloro-1-(pyridin-3-yl)-1H-pyrazol-4-yl)(prop-2-yn-1-yl)amino)-2-oxoethyl)(methyl) carbamate], the results for the mortality at 200 ppm in experiment [1] (foliar) and in experiment [2] (foliar) were 0 to 80% and 80 to 100%, respectively.

Turning to `CC(=O)N[C@H]1C=C[C@@H](C(=O)N(C)c2cn(-c3cccnc3)nc2Cl)C1` [Compound F24, (1S,4R)-4-acetamido-N-(3-chloro-1-(pyridin-3-yl)-1H-pyrazol-4-yl)-N-methyl-cyclopent-2-enecarboxamide], the mortality at 200 ppm in experiment [1] (setting [3]) and in experiment [2] (setting [4]) was 80 to 100% in each case.
